From patent US12083124B2 (Incyte Corporation, priority 2019, dated 2024)
Read-outs that look alike come from different tables or passages of the source.

How the values were obtained:
[1] = biological target: wild-type un-phosphorylated FGFR3 (Homo sapiens, UniProt P22607); test: FGFR Enzymatic Assay (FRET peptide phosphorylation), FGFR3
Procedure: (§1) The inhibitor potency of the exemplified compounds was determined in an enzyme discontinuous assay that measures peptide phosphorylation using FRET measurements to detect product formation. Inhibitors were serially diluted in DMSO and a volume of 0.2 μL was transferred to the wells of a 384-well plate. […] Appropriate controls (enzyme blank and enzyme with no inhibitor) were included on the plate. […] The 10 μL/well reaction concentration of the peptide substrate was 500 nM whereas the ATP concentration was maintained near or below the ATP Km. The ATP Km values were pre-determined in a separate series of experiments. The reaction plate was incubated at 25° C. for 1 hr and the reactions were ended with the addition of 5 μL/well of quench solution (50 mM Tris, 150 mM NaCl, 0.5 mg/mL BSA, pH 7.8; 45 mM EDTA, 600 nM staurosporin, with Perkin Elmer Lance Reagents at 3.75 nM Eu-antibody PY20 and 180 nM APC-Streptavidin). The plate was allowed to equilibrate for ˜10 minutes at ambient temperature before scanning on a PheraStar plate reader (BMG Labtech) instrument.
(§2) Either GraphPad prism or XLfit was used to analyze the data. The IC50 values were derived by fitting the data to a four parameter logistic equation producing a sigmoidal dose-response curve with a variable Hill coefficient. Prism equation: Y=Bottom+(Top-Bottom)/(1+10^((Log IC50-X)*Hill slope)); XLfit equation: Y=(A+((B−A)/(1+((X/C)^D)))) where X is the logarithm of inhibitor concentration and Y is the response.
(§3) GraphPad prism3 was used to analyze the data. The IC50 values were derived by fitting the data to the equation for a sigmoidal dose-response with a variable slope. Y=Bottom+(Top-Bottom)/(1+10^((Log IC50-X)*Hill Slope)) where X is the logarithm of concentration and Y is the response.

[2] = biological target: wild-type un-phosphorylated FGFR1 (Homo sapiens, UniProt P11362); test: FGFR Enzymatic Assay (FRET peptide phosphorylation), FGFR1; conditions: pre-incubated for 4 hours
Chain of wild-type un-phosphorylated FGFR1 (P11362 22-822): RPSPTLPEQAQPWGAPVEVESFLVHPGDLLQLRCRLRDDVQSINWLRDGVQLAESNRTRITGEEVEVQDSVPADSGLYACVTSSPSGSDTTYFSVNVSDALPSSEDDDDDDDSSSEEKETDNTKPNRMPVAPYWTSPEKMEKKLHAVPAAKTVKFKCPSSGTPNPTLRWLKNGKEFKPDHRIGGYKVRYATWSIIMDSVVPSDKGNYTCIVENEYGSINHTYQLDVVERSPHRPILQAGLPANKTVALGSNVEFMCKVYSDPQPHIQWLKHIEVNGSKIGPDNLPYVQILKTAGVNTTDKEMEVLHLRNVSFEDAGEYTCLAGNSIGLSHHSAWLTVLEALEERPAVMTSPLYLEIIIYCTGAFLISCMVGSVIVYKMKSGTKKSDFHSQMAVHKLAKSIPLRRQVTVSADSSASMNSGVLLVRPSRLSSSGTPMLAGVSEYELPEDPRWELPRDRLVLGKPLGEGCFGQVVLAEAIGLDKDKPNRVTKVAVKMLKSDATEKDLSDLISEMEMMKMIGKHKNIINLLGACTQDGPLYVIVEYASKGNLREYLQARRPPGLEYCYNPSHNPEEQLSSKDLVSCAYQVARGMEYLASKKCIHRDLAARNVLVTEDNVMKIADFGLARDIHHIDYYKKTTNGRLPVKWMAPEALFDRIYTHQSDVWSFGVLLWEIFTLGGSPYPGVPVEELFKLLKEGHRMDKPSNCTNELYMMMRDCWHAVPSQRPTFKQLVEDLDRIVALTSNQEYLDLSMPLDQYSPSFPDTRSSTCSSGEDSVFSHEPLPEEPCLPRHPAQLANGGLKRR

[3] = biological target: wild-type un-phosphorylated FGFR2 (Homo sapiens, UniProt P21802); test: FGFR Enzymatic Assay (FRET peptide phosphorylation), FGFR2
Chain of wild-type un-phosphorylated FGFR2 (P21802 22-821): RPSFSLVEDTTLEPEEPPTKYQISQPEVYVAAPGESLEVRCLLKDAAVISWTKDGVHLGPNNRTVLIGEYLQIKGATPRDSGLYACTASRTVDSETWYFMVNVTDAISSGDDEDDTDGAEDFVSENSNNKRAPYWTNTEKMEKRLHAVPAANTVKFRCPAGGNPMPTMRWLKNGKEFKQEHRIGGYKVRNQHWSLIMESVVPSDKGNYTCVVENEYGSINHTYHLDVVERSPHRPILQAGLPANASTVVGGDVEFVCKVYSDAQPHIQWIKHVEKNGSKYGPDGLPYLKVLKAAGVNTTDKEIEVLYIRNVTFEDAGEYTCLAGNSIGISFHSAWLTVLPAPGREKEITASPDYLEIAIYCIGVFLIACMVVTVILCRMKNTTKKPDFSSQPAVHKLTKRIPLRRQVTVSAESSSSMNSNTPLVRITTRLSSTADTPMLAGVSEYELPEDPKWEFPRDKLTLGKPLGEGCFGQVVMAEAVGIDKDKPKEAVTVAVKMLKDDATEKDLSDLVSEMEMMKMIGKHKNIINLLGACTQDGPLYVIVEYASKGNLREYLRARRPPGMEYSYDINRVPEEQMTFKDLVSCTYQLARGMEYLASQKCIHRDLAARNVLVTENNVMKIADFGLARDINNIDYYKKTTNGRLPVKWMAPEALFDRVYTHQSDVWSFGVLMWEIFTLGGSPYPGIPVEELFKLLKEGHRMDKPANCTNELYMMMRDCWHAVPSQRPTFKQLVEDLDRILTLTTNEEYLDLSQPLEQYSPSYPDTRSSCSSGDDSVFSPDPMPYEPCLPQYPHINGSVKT
Procedure: as §1, §2, §3
The data in Table 1 was measured in wild-type un-phosphorylated FGFR1, FGFR2, FGFR3, and FGFR4 proteins.

[4] = biological target: wild-type un-phosphorylated FGFR4 (Homo sapiens, UniProt P22455); test: FGFR Enzymatic Assay (FRET peptide phosphorylation), FGFR4
Chain of wild-type un-phosphorylated FGFR4 (P22455 22-802): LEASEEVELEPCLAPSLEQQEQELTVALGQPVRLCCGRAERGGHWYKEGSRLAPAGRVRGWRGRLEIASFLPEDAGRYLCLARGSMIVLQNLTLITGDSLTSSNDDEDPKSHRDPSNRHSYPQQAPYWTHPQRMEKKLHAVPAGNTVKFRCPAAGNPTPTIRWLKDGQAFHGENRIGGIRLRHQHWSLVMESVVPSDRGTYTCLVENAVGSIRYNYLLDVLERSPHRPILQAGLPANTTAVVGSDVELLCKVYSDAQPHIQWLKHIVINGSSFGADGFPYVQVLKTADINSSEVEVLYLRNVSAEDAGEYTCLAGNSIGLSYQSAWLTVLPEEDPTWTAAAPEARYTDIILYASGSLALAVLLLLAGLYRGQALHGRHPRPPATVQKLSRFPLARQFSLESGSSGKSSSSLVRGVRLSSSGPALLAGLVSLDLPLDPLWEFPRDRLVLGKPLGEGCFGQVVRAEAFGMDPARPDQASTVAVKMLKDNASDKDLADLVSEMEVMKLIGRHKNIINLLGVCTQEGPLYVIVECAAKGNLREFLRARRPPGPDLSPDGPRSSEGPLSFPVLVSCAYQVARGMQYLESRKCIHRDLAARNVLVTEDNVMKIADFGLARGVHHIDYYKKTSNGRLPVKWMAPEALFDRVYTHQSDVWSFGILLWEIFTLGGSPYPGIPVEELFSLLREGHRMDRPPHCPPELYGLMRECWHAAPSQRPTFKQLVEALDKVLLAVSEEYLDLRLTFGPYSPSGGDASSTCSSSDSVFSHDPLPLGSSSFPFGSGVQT

[5] = read-out: FGFR1, wild-type un-phosphorylated FGFR1
[6] = read-out: FGFR4, wild-type un-phosphorylated FGFR4, pre-incubated for 4 hours
[7] = FGFR1, wild-type un-phosphorylated FGFR1

Chain of wild-type un-phosphorylated FGFR3 (P22607 23-806): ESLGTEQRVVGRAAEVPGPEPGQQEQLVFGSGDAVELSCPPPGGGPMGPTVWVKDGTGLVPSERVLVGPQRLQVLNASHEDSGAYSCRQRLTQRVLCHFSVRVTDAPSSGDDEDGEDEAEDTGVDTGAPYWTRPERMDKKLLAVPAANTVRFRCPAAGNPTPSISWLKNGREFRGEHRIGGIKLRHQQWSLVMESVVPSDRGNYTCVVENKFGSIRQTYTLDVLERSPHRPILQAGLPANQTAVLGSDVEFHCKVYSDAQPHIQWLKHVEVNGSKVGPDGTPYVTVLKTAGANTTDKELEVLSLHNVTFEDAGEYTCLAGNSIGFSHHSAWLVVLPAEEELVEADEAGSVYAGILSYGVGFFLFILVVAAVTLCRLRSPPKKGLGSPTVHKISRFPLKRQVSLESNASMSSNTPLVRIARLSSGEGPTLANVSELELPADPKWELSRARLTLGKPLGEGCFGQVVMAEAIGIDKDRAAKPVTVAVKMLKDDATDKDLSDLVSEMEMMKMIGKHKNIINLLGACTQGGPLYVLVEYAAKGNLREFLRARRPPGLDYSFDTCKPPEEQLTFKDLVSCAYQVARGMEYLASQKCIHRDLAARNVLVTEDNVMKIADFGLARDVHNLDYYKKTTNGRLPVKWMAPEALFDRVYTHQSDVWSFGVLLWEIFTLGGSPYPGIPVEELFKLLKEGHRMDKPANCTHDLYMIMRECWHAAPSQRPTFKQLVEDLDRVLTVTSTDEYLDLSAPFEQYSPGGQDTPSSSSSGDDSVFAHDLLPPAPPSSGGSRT

IC50 [1] | IC50 [2, 5] | IC50 [3] | IC50 [4, 6] | IC50 [4] | IC50 [2, 7] | Compound
< 6 nM | 6 to 40 nM | < 6 nM | 6 to 40 nM | – | – | COc1cc2[nH]nc(-c3cnn(C4CN(C(=O)[C@H]5C[C@@](C)(O)C5)C4)c3)c2nc1-c1cccc2c1CCC2 [Example 136, (3-(4-(5-(2,3-Dihydro-1H-inden-4-yl)-6-methoxy-1H-pyrazolo[4,3-b]pyridin-3-yl)-1H-pyrazol-1-yl)azetidin-1-yl)((1s,3s)-3-hydroxy-3-methylcyclobutyl)methanone]
< 6 nM | 6 to 40 nM | < 6 nM | – | 40 to 100 nM | – | COc1cc2[nH]nc(-c3cnn([C@@H]4CCN(C(=O)[C@@H]5COCCN5C)C4)c3)c2nc1-c1cccc2c1CCC2 [Example 137, ((R)-3-(4-(5-(2,3-Dihydro-1H-inden-4-yl)-6-methoxy-1H-pyrazolo[4,3-b]pyridin-3-yl)-1H-pyrazol-1-yl)pyrrolidin-1-yl)((S)-4-methylmorpholin-3-yl)methanone]
< 6 nM | 6 to 40 nM | < 6 nM | – | 40 to 100 nM | – | COc1cc2[nH]nc(-c3cnn([C@H]4CCN(C(=O)[C@H]5COCCN5C)C4)c3)c2nc1-c1cccc2c1CCC2 [Example 138, ((S)-3-(4-(5-(2,3-Dihydro-1H-inden-4-yl)-6-methoxy-1H-pyrazolo[4,3-b]pyridin-3-yl)-1H-pyrazol-1-yl)pyrrolidin-1-yl)((R)-4-methylmorpholin-3-yl)methanone]
< 6 nM | 6 to 40 nM | < 6 nM | 6 to 40 nM | – | – | COc1cc2[nH]nc(-c3cnn(C4CN(C(=O)C5(CO)CCC5)C4)c3)c2nc1-c1cccc2c1CCC2 [Example 139, (3-(4-(5-(2,3-Dihydro-1H-inden-4-yl)-6-methoxy-1H-pyrazolo[4,3-b]pyridin-3-yl)-1H-pyrazol-1-yl)azetidin-1-yl)(1-(hydroxymethyl)cyclobutyl)methanone]
< 6 nM | 6 to 40 nM | < 6 nM | – | 40 to 100 nM | – | CCN1CC[C@H]1C(=O)N1CC(n2cc(-c3n[nH]c4cc(OC)c(-c5cccc6c5CCC6)nc34)cn2)C1 [Example 140, (S)-(3-(4-(5-(2,3-dihydro-1H-inden-4-yl)-6-methoxy-1H-pyrazolo[4,3-b]pyridin-3-yl)-1H-pyrazol-1-yl)azetidin-1-yl)(1-ethylazetidin-2-yl)methanone]
< 6 nM | 6 to 40 nM | < 6 nM | 6 to 40 nM | – | – | COc1cc2[nH]nc(-c3cnn(C4CN(C(=O)[C@@H]5CCN5CCF)C4)c3)c2nc1-c1cccc2c1CCC2 [Example 141, (S)-(3-(4-(5-(2,3-Dihydro-1H-inden-4-yl)-6-methoxy-1H-pyrazolo[4,3-b]pyridin-3-yl)-1H-pyrazol-1-yl)azetidin-1-yl)(1-(2-fluoroethyl)azetidin-2-yl)methanone]
< 6 nM | 6 to 40 nM | < 6 nM | – | 40 to 100 nM | – | COc1cc2[nH]nc(-c3cnn(C4CN(C(=O)[C@@H]5CCN5C(C)C)C4)c3)c2nc1-c1cccc2c1CCC2 [Example 142, (S)-(3-(4-(5-(2,3-Dihydro-1H-inden-4-yl)-6-methoxy-1H-pyrazolo[4,3-b]pyridin-3-yl)-1H-pyrazol-1-yl)azetidin-1-yl)(1-isopropylazetidin-2-yl)methanone]
< 6 nM | 6 to 40 nM | < 6 nM | 6 to 40 nM | – | – | COc1cc2[nH]nc(-c3cnn([C@H]4CCN(C(=O)[C@@H]5CCN5CCF)C4)c3)c2nc1-c1cccc2c1CCC2 [Example 143, ((S)-3-(4-(5-(2,3-dihydro-1H-inden-4-yl)-6-methoxy-1H-pyrazolo[4,3-b]pyridin-3-yl)-1H-pyrazol-1-yl)pyrrolidin-1-yl)((S)-1-(2-fluoroethyl)azetidin-2-yl)methanone]
< 6 nM | 6 to 40 nM | < 6 nM | 6 to 40 nM | – | – | COc1cc2[nH]nc(-c3cnn([C@H]4CCN(C(=O)[C@H]5C[C@H](O)C5)C4)c3)c2nc1-c1cccc2c1CCC2 [Example 144, ((S)-3-(4-(5-(2,3-Dihydro-1H-inden-4-yl)-6-methoxy-1H-pyrazolo[4,3-b]pyridin-3-yl)-1H-pyrazol-1-yl)pyrrolidin-1-yl)((trans)-3-hydroxycyclobutyl)methanone]
< 6 nM | 6 to 40 nM | < 6 nM | 6 to 40 nM | – | – | COc1cc2[nH]nc(-c3cnn([C@H]4CCN(C(=O)[C@H]5C[C@@H](O)C5)C4)c3)c2nc1-c1cccc2c1CCC2 [Example 145, ((S)-3-(4-(5-(2,3-Dihydro-1H-inden-4-yl)-6-methoxy-1H-pyrazolo[4,3-b]pyridin-3-yl)-1H-pyrazol-1-yl)pyrrolidin-1-yl)((cis)-3-hydroxycyclobutyl)methanone]
< 6 nM | 6 to 40 nM | < 6 nM | 6 to 40 nM | – | – | COc1cc2[nH]nc(-c3cnn([C@H]4CCN(C(=O)[C@H]5C[C@@](C)(O)C5)C4)c3)c2nc1-c1cccc2c1CCC2 [Example 146, ((S)-3-(4-(5-(2,3-Dihydro-1H-inden-4-yl)-6-methoxy-1H-pyrazolo[4,3-b]pyridin-3-yl)-1H-pyrazol-1-yl)pyrrolidin-1-yl)((1s,3r)-3-hydroxy-3-methylcyclobutyl)methanone]
< 6 nM | 6 to 40 nM | < 6 nM | – | 40 to 100 nM | – | COCC(=O)N1CC(n2cc(-c3n[nH]c4cc(OC)c(-c5cccc6c5CCC6)nc34)cn2)C1 [Example 147, 1-(3-(4-(5-(2,3-Dihydro-1H-inden-4-yl)-6-methoxy-1H-pyrazolo[4,3-b]pyridin-3-yl)-1H-pyrazol-1-yl)azetidin-1-yl)-2-methoxyethan-1-one]
< 6 nM | 6 to 40 nM | < 6 nM | – | 40 to 100 nM | – | COc1cc2[nH]nc(-c3cnn(C4CN(C(=O)C(C)(C)N(C)C)C4)c3)c2nc1-c1cccc2c1CCC2 [Example 148, 1-(3-(4-(5-(2,3-Dihydro-1H-inden-4-yl)-6-methoxy-1H-pyrazolo[4,3-b]pyridin-3-yl)-1H-pyrazol-1-yl)azetidin-1-yl)-2-(dimethylamino)-2-methylpropan-1-one]
< 6 nM | 6 to 40 nM | < 6 nM | 6 to 40 nM | – | – | COc1cc2[nH]nc(-c3cnn(C4CN(C(=O)C5(C#N)CC5)C4)c3)c2nc1-c1cccc2c1CCC2 [Example 149, 1-(3-(4-(5-(2,3-Dihydro-1H-inden-4-yl)-6-methoxy-1H-pyrazolo[4,3-b]pyridin-3-yl)-1H-pyrazol-1-yl)azetidine-1-carbonyl)cyclopropane-1-carbonitrile]
< 6 nM | – | < 6 nM | – | 40 to 100 nM | 40 to 100 nM | COc1cc2[nH]nc(-c3cnn(C4CN(S(=O)(=O)CCO)C4)c3)c2nc1-c1cccc2c1CCC2 [Example 150, 2-((3-(4-(5-(2,3-Dihydro-1H-inden-4-yl)-6-methoxy-1H-pyrazolo[4,3-b]pyridin-3-yl)-1H-pyrazol-1-yl)azetidin-1-yl)sulfonyl)ethan-1-ol]
< 6 nM | 6 to 40 nM | < 6 nM | – | 40 to 100 nM | – | COc1cc2[nH]nc(-c3cnn(C4CN(S(=O)(=O)CCN(C)C)C4)c3)c2nc1-c1cccc2c1CCC2 [Example 151, 2-((3-(4-(5-(2,3-Dihydro-1H-inden-4-yl)-6-methoxy-1H-pyrazolo[4,3-b]pyridin-3-yl)-1H-pyrazol-1-yl)azetidin-1-yl)sulfonyl)-N,N-dimethylethan-1-amine]
< 6 nM | – | < 6 nM | – | 40 to 100 nM | 40 to 100 nM | COCCOC(=O)N1CC(n2cc(-c3n[nH]c4cc(OC)c(-c5cccc6c5CCC6)nc34)cn2)C1 [Example 152, 2-Methoxyethyl 3-(4-(5-(2,3-dihydro-1H-inden-4-yl)-6-methoxy-1H-pyrazolo[4,3-b]pyridin-3-yl)-1H-pyrazol-1-yl)azetidine-1-carboxylate]
< 6 nM | 6 to 40 nM | < 6 nM | – | 40 to 100 nM | – | COc1cc2[nH]nc(-c3cnn(C4CN(C(=O)[C@H]5C[C@@H](OC)C5)C4)c3)c2nc1-c1cccc2c1CCC2 [Example 153, (3-(4-(5-(2,3-Dihydro-1H-inden-4-yl)-6-methoxy-1H-pyrazolo[4,3-b]pyridin-3-yl)-1H-pyrazol-1-yl)azetidin-1-yl)((1s,3s)-3-methoxycyclobutyl)methanone]
< 6 nM | – | < 6 nM | – | > 100 nM | 40 to 100 nM | COc1cc2[nH]nc(-c3ccc(C4CCC(N(C)S(C)(=O)=O)C4)nc3)c2nc1-c1cccc2c1CCC2 (stereo not drawn) [Example 154, N-(3-(5-(5-(2,3-Dihydro-1H-inden-4-yl)-6-methoxy-1H-pyrazolo[4,3-b]pyridin-3-yl)pyridin-2-yl)cyclopentyl)-N-methylmethanesulfonamide]
< 6 nM | 6 to 40 nM | < 6 nM | 6 to 40 nM | – | – | COc1cc2[nH]nc(-c3ccc(C4CCC(NC(=O)[C@H](C)O)C4)nc3)c2nc1-c1cccc2c1CCC2 (stereo partly drawn) [Example 156, (2S)-N-(3-(5-(5-(2,3-Dihydro-1H-inden-4-yl)-6-methoxy-1H-pyrazolo[4,3-b]pyridin-3-yl)pyridin-2-yl)cyclopentyl)-2-hydroxypropanamid]
< 6 nM | – | < 6 nM | – | 40 to 100 nM | 40 to 100 nM | COc1cc2[nH]nc(-c3ccc(C4CCC(NC(=O)CO)C4)nc3)c2nc1-c1cccc2c1CCC2 (stereo not drawn) [Example 157, N-(3-(5-(5-(2,3-Dihydro-1H-inden-4-yl)-6-methoxy-1H-pyrazolo[4,3-b]pyridin-3-yl)pyridin-2-yl)cyclopentyl)-2-hydroxyacetamide]
